# Laboratory results published in US20030220386A1, “Delta 1-pyrrolines for use as pesticides” (priority 2000, published 2003).
# Like-named read-outs stand apart in the source and are kept apart here.
# How the values were obtained:
# [1] = logP determination by HPLC (reversed-phase C 18), EEC Directive 79/831 Annex V.A8; type: physicochemical; conditions: 43° C.
# Experimental: The logP values given in the tables and preparation examples above are determined in accordance with EEC Directive 79/831 Annex V.A8 by HPLC (High Performance Liquid Chromatography) using a reversed-phase column (C 18). Temperature: 43° C.
# In the acidic range, the determination is carried out at pH 2.3 using the mobile phases 0.1% aqueous phosphoric acid and acetonitrile; linear gradient from 10% acetonitrile to 90% acetonitrile.
# In the neutral range, the determination is carried out at pH 7.5 using the mobile phases 0.01 molar aqueous phosphate buffer solution and acetonitrile; linear gradient from 10% acetonitrile to 90% acetonitrile.
# Calibration is carried out using unbranched alkan-2-ones (of 3 to 16 carbon atoms) with known logP values (determination of the logP values by the retention times using linear interpolation between two successive alkanones).
# [2] = test system: larvae of the mustard beetle (Phaedon cochleariae); assay: Phaedon larvae test; conditions: 1000 ppm, cabbage leaves dipped
# [3] = test system: Meloidogyne incognita; assay: Meloidogyne test; type: in vivo; conditions: 20 ppm, nematicidal action by formation of galls on lettuce roots
# Experimental: Vessels are filled with sand, solution of active compound, Meloidogyne incognita egg/larvae suspension and lettuce seeds. The lettuce seeds germinate and the plants develop. On the roots, galls are formed.
# After the desired period of time, the nematicidal action is determined in % by the formation of galls. 100% means that no galls were found; 0% means that the number of galls on the treated plants corresponds to that of the untreated control.
# [4] = test system: caterpillars of the diamondback moth (Plutella xylostella); assay: Plutella test; type: in vivo; conditions: cabbage leaves dipped
# [5] = test system: Lucilia cuprina larvae; assay: Blowfly larvae test/Development-inhibitory action; type: in vivo; conditions: 100 ppm; mortality of the larvae after 48 hours
# Experimental: (§1) 20 mg of active compound are dissolved in one ml of dimethyl sulphoxide. To prepare a suitable formulation, the solution of active compound is diluted with water to the concentration desired in each case.
# About 20 Lucilia cuprina larvae are introduced into a test tube which contains about 1 cm^3 of horsemeat and 0.5 ml of the preparation of active compound to be tested. The activity of the preparation of active compound is determined after 48 hours as the mortality of the larvae in %.
# The test tubes are then transferred into a beaker whose bottom is covered with sand. After a further 12 days, the test tubes are removed and the pupae and flies are counted. The development-inhibitory action is stated as inhibition of hatching in % (ratio of pupae to flies that have hatched) after 1.5 times the development period of an untreated control.
# [6] = test system: larvae of the armyworm (Spodoptera frugiperda); assay: Spodoptera frugiperda test; type: in vivo; conditions: 1000 ppm, cabbage leaves dipped
# [7] = test system: Amblyomma hebraeum nymphs; assay: Test with polyphagous tick nymphs, dip treatment; type: in vivo; conditions: nymphs immersed for 1 minute; after 4 weeks
# Experimental: as §1
# 10 nymphs which have sucked themselves full are immersed for 1 minute into the preparation of active compound to be tested. The animals are transferred to Petri dishes (Ø 9.5 cm) fitted with filter discs and covered. After 4 weeks of storage in a climatized room, the mortality is determined.
# 100% means that none of the animals has undergone normal ecdysis. 0% means that all animals have undergone ecdysis.
# [8] = test system: Heliothis virescens caterpillars; assay: Heliothis virescens test; type: in vivo; conditions: soya bean shoots dipped
# [9] = test system: peach aphid (Myzus persicae); assay: Myzus test; type: in vivo; conditions: cabbage leaves dipped
# [10] = test system: greenhouse red spider mite (Tetranychus urticae); assay: Tetranychus test (OP-resistant/dip treatment); type: in vivo; conditions: 100 ppm, bean plants dipped
# Experimental: After the desired period of time, the activity in % is determined.
# [11] = test system: cotton aphid (Aphis gossypii); assay: Aphis gossypii test; type: in vivo; conditions: 200 ppm, cotton leaves dipped
# [12] = test system: larvae of the armyworm (Spodoptera exigua); assay: Spodoptera exigua test; type: in vivo; conditions: 1000 ppm, cabbage leaves dipped
# [13] = reversed-phase C18 HPLC column, pH 2.3, 0.1% aqueous phosphoric acid/acetonitrile, read-out: log P (pH 2.3)
# [14] = pH 2.3, 0.1% aqueous phosphoric acid/acetonitrile, read-out: log P (pH 2.3)
smiles,measurement,setting,value
"CC1(C)OB(c2ccc(C3CCC(c4c(F)cccc4F)=N3)cc2)OC1(C)C (stereo not drawn) [V-1, 5-(2,6-difluorophenyl)-2-[4-(4,4,5,5-tetramethyl-1,3,2-dioxaborolan-2-yl)phenyl]-3,4-dihydro-2H-pyrrole]",chromatographic logP,"[1]; reversed-phase C18 HPLC column, pH 7.5, 0.01 molar aqueous phosphate buffer/acetonitrile, read-out: log P (pH 7.5)",4.46
"CN(C)S(=O)(=O)Oc1ccc(-c2ccc(C(CCC(=O)c3c(F)cccc3F)NC(=O)OC(C)(C)C)cc2)cc1 (stereo not drawn) [II-4, tert-Butyl 4-(2,6-difluorophenyl)-1-(4′-{[(dimethylamino)sulphonyl]oxy}-1,1′-biphenyl-4-yl)-4-oxobutylcarbamate]",chromatographic logP,[1]; [13],4.25
"O=C1CCC(c2ccc(-c3ccc(OS(=O)(=O)C(F)(F)C(F)(F)C(F)(F)C(F)(F)F)cc3)cc2)N1 (stereo not drawn) [IX-b-2, 4′-(5-Oxo-2-pyrrolidinyl)-1,1′-biphenyl-4-yl 1,1,2,2,3,3,4,4,4-nonafluoro-1-butanesulphonate]",chromatographic logP,[1]; [14],4.21
"CN(C)S(=O)(=O)Oc1ccc(-c2ccc(C3CCC(=O)N3)cc2)cc1 (stereo not drawn) [IX-b-1, 4′-(5-oxo-2-pyrrolidinyl)-1,1′-biphenyl-4-yl dimethylsulphamate]",chromatographic logP,[1]; [13],2.23
"O=S(=O)(Oc1ccc(-c2ccc([C@H]3CCC(c4c(F)cccc4F)=N3)cc2)cc1)C(F)(F)F [I-5, 4′-[(2R)-5-(2,6-difluorophenyl)-3,4-dihydro-2H-pyrrol-2-yl]-1,1′-biphenyl-4-yl trifluoromethanesulphonate]",Kill rate in % after 7 days,[2],100%
same,Kill rate in % after 14 days,[3],100%
same,chromatographic logP,[1]; [13],4.27
same,Kill rate in % after 6 days,[4]; 5 ppm,100%
same,Action in % after 48 hours,[5],100%
same,Kill rate in % after 6 days,[6],100%
same,activity (mortality / no normal ecdysis),[7],good activity
same,Kill rate in % after 6 days,[8]; 5 ppm,100%
"O=S(=O)(Oc1ccc(C2CCC(c3c(F)cccc3F)=N2)cc1)C(F)(F)F (stereo not drawn) [I-1, 4-[5-(2,6-difluorophenyl)-3,4-dihydro-2H-pyrrol-2-yl]phenyl trifluoromethanesulphonate]",Kill rate in % after 6 days,[9]; 20 ppm,95%
same,Kill rate in % after 7 days,[2],100%
same,Kill rate in % after 7 days,[10],95%
same,chromatographic logP,[1]; [13],3.49
same,Kill rate in % after 6 days,[11],95%
same,Action in % after 48 hours,[5],100%
same,activity (mortality / no normal ecdysis),[7],good activity
"CC(C)(C)OC(=O)N1C(=O)CCC1c1ccc(OS(=O)(=O)C(F)(F)F)cc1 (stereo not drawn) [VII-1, tert-butyl 2-oxo-5-(4-{[(trifluoromethyl)-sulphonyl]oxy}phenyl)-1-pyrrolidinecarboxylate]",chromatographic logP,[1]; [13],3.31
"CC(C)(C)OC(=O)N1C(=O)CC[C@@H]1c1ccc(OS(=O)(=O)C(F)(F)F)cc1 [VII-2, tert-butyl 2-oxo-(5R)-5-(4-{[(trifluoromethyl)sulphonyl]oxy}phenyl)-1-pyrrolidinecarboxylate]",chromatographic logP,[1]; [13],3.31
"CC(C)(C)OC(=O)NC(CCC(=O)c1c(F)cccc1F)c1ccc(OS(=O)(=O)C(F)(F)F)cc1 (stereo not drawn) [II-1, 4-[1-[(tert-butoxycarbonyl)amino]-4-(2,6-difluorophenyl)-4-oxobutyl]phenyl trifluoromethanesulphonate]",chromatographic logP,[1]; [14],4.38
"CN(C)S(=O)(=O)Oc1ccc(-c2ccccc2C2CCC(=O)N2)cc1 (single isomer, unassigned; isomer 2) [“ortho” isomer, 2′-(5-oxo-2-pyrrolidinyl)-1,1′-biphenyl-4-yl dimethylsulphamate]",chromatographic logP,[1]; [13],2.28
"CC(C)(C)OC(=O)N1C(=O)CCC1c1ccc(-c2ccc(OS(=O)(=O)C(F)(F)C(F)(F)C(F)(F)C(F)(F)F)cc2)cc1 (stereo not drawn) [VII-3, tert-Butyl 2-(4′-{[(1,1,2,2,3,3,4,4,4-nonafluorobutyl)sulphonyl]oxy}-1,1′-biphenyl-4-yl)-5-oxo-1-pyrrolidinecarboxylate]",chromatographic logP,[1]; [14],5.44
"CN(C)S(=O)(=O)Oc1ccc(-c2ccccc2)cc1 [XIII-2, 1,1′-biphenyl-4-yl dimethylsulphamate]",melting point,,105 to 107 °C
same,chromatographic logP,[1]; [14],3.51
"CC(C)(C)OC(=O)N[C@H](CCC(=O)c1c(F)cccc1F)c1ccc(OS(=O)(=O)C(F)(F)F)cc1 [II-2, 4-[(1R)-1-[(tert-Butoxycarbonyl)amino]-4-(2,6-difluorophenyl)-4-oxobutyl]phenyl trifluoromethanesulphonate]",chromatographic logP,[1]; [14],4.37
"O=S(=O)(Oc1ccc(C2CCC(c3c(F)cccc3F)=N2)cc1)c1ccc(OC(F)(F)F)cc1 (stereo not drawn) [I-6, 4-[5-(2,6-difluorophenyl)-3,4-dihydro-2H-pyrrol-2-yl]phenyl 4-(trifluoromethoxy)benzenesulphonate]",Kill rate in % after 6 days,[9]; 1000 ppm,95%
same,Kill rate in % after 7 days,[2],90%
same,Kill rate in % after 7 days,[10],98%
same,chromatographic logP,[1]; [13],3.83
same,Action in % after 48 hours,[5],90%
"O=S(=O)(Oc1ccc(-c2ccc(C3CCC(c4c(F)cccc4F)=N3)cc2)cc1)C(F)(F)C(F)(F)C(F)(F)C(F)(F)F (stereo not drawn) [I-3, 4′-[5-(2,6-Difluorophenyl)-3,4-dihydro-2H-pyrrol-2-yl]-1,1′-biphenyl-4-yl 1,1,2,2,3,3,4,4,4-nonafluoro-1-butanesulphonate]",Kill rate in % after 7 days,[2],100%
same,Kill rate in % after 7 days,[10],98%
same,chromatographic logP,[1]; [14],5.57
same,Kill rate in % after 6 days,[6],100%
"O=S(=O)(Oc1ccc(-c2ccc(C3CCC(c4c(F)cccc4F)=N3)cc2)cc1)C(F)(F)F (stereo not drawn) [I-7, 4′-[5-(2,6-difluorophenyl)-3,4-dihydro-2H-pyrrol-2-yl]-1,1′-biphenyl-4-yl trifluoromethanesulphonate]",Kill rate in % after 6 days,[12],100%
same,Kill rate in % after 7 days,[2],100%
same,Kill rate in % after 7 days,[10],98%
same,chromatographic logP,[1]; [13],4.15
same,Kill rate in % after 6 days,[4]; 1000 ppm,100%
same,Action in % after 48 hours,[5],100%
same,Kill rate in % after 6 days,[6],100%
same,activity (mortality / no normal ecdysis),[7],good activity
same,Kill rate in % after 6 days,[8]; 1000 ppm,100%
"O=S(=O)(Oc1ccc(-c2ccccc2)cc1)C(F)(F)C(F)(F)C(F)(F)C(F)(F)F [XIII-1, 1,1′-biphenyl-4-yl 1,1,2,2,3,3,4,4,4-nonafluoro-1-butanesulphonate]",chromatographic logP,[1]; [14],5.81
"CN(C)S(=O)(=O)Oc1ccc(-c2ccc(C3CCC(=O)N3C(=O)OC(C)(C)C)cc2)cc1 (stereo not drawn) [VII-4, tert-Butyl 2-(4′-{[(dimethylamino)sulphonyl]oxy}-1,1′-biphenyl-4-yl)-5-oxo-1-pyrrolidinecarboxylate]",chromatographic logP,[1]; [13],3.31
"CN(C)S(=O)(=O)Oc1ccc(-c2ccc(C3CCC(c4c(F)cccc4F)=N3)cc2)cc1 (stereo not drawn) [I-4, 4′-[5-(2,6-Difluorophenyl)-3,4-dihydro-2H-pyrrol-2-yl]-1,1′-biphenyl-4-yl dimethylsulphamate]",Kill rate in % after 7 days,[2],100%
same,chromatographic logP,[1]; [13],3.06
same,Kill rate in % after 6 days,[6],100%
"CC(C)(C)OC(=O)NC(CCC(=O)c1c(F)cccc1F)c1ccc(-c2ccc(OS(=O)(=O)C(F)(F)C(F)(F)C(F)(F)C(F)(F)F)cc2)cc1 (stereo not drawn) [II-3, 4′-[1-[(tert-Butoxycarbonyl)amino]-4-(2,6-difluorophenyl)-4-oxobutyl]-1,1′-biphenyl-4-yl 1,1,2,2,3,3,4,4,4-nonafluoro-1-butanesulphonate]",chromatographic logP,[1]; [14],6.05
